For orientation: half-life means how long it takes for the measured level to halve. For orientation: pIC50 means the IC50 on a negative log10 scale, so that one unit is a factor of ten.

pIC50: −log10 of the molar value. In brackets after ≈: the same amount, converted by molar mass. Activity calls are given as the source filed them. No cut-off for these calls is given here.

Consider 1 molecule from ChEMBL document CHEMBL4811298, “Discovery of novel class of histone deacetylase inhibitors as potential anticancer agents” (Bioorg Med Chem, 2021).

The nature of data set [1]: Kinetic aqueous solubility of the compound in 2% DMSO/phosphate buffered saline at 200 uM incubated for 90 mins by UV absorbance based analysis. It counts as physicochemical. The following applies: read-out: Kinetic_solubility.
A short description of data set [2]: Half life in human liver microsomes at 1 uM measured after 60 mins in presence of NADPH by LC-MS/MS analysis. The format is ADME, Microsome.
Another data set addresses Cytochrome P450 3A4 (Homo sapiens, UniProt P08684). The data set can be described thus: Inhibition of human CYP3A4 expressed in insect supersomes assessed as reduction in […] formation using midazolam as substrate measured after 30 mins in presence of NADPH by LC-MS/MS analysis. It counts as ADME.
In the next data set the target is Cytochrome P450 2D6 (Homo sapiens, UniProt P10635). The data set can be described thus: Inhibition of human CYP2D6 expressed in insect supersomes assessed as reduction in AHMC formation using AMMC as substrate measured after 40 mins in presence of NADPH by fluorescence based analysis. The format is ADME.
The target in another data set is Histone deacetylase 1 (Homo sapiens, UniProt Q13547). The data set can be described thus: Inhibition of C-terminal FLAG/His-tagged human recombinant HDAC1 (1 to 482 residues) expressed in baculovirus-infected Sf9 cells assessed as reduction in 7-amino-4-methylcoumarin release using fluorogenic HDAC substrate 3 measured every 5 mins by fluorescence based analysis.

The target in a further data set is Histone deacetylase 2 (Homo sapiens, UniProt Q92769). The format is cell-based, Sf9.
Data set [3] concerns the target Histone deacetylase 3/Nuclear receptor corepressor 2 (HDAC3/NCoR2) (Homo sapiens, UniProt O15379). In words: Inhibition of C-terminal His-tagged human recombinant full length HDAC3 (1 to 428 residues)/N-terminal GST-tagged human recombinant NCOR2 (395 to 489 residues) expressed in baculovirus-infected Sf9 cells assessed as reduction in 7-amino-4-methylcoumarin release using fluorogenic HDAC substrate 3 measured every 5 mins by fluorescence based analysis.

In a further data set the target is Histone deacetylase 4 (Homo sapiens, UniProt P56524). The data set can be described thus: Inhibition of N-terminal GST-tagged/C-terminal His-tagged human recombinant HDAC4 (627 to 1084 residues) expressed in baculovirus-infected Sf9 cells assessed as reduction in 7-amino-4-methylcoumarin release measured every 5 mins by fluorescence based analysis.
In a further data set the target is Histone deacetylase 9 (Homo sapiens, UniProt Q9UKV0). In words: Inhibition of C-terminal His-tagged human HDAC9 (604 to 1066 residues) expressed in baculovirus-infected Sf9 cells assessed as reduction in 7-amino-4-methylcoumarin release measured every 5 mins by fluorescence based analysis.
The test system of data set [4] is MCF7. The data set can be described thus: Antiproliferative activity against human MCF7 cells assessed as reduction in cell viability incubated for 48 hrs by SRB assay. It counts as functional, cell-based. The following applies: MCF7, 48 h.
Data set [5] concerns MCF7. The data set can be described thus: Induction of apoptosis in human MCF7 cells assessed as increase in caspase 3/7 activity at 1 to 3 uM measured after 48 hrs by ELISA. The format is functional, cell-based. The following applies: dose 1-3 µM.
For data set [6], the system named is MCF7. In words: Induction of apoptosis in human MCF7 cells assessed as reduction in Bcl3 gene expression at 3 uM incubated for 24 hrs by whole transcriptome analysis. The format is functional, cell-based.
The subject of data set [7] is MCF7. The data set can be described thus: Downregulation of SIRT4 gene expression in human MCF7 cells at 3 uM incubated for 24 hrs by whole transcriptome analysis. It counts as functional, cell-based.
Data set [8] has as its target Histone deacetylase (Homo sapiens) (UniProt Q13547+O15379+Q9UBN7+Q92769+Q9UQL6+Q8WUI4+Q9BY41+Q96DB2+P56524+Q9UKV0+Q969S8). In words: Inhibition of HDAC in human MCF7 cells assessed as increase in acetylated histone H4 mRNA level at 3 uM incubated for 24 hrs by whole transcriptome analysis. It counts as cell-based.
In data set [9] the test system is MCF7. In words: Induction of cell cycle arrest in human MCF7 cells assessed downregulation of CDK1 gene expression at 3 uM incubated for 24 hrs by whole transcriptome analysis. The format is functional, cell-based.
Data set [10] deals with MCF7. In words: Induction of cell cycle arrest in human MCF7 cells assessed downregulation of RB1 gene expression at 3 uM incubated for 24 hrs by whole transcriptome analysis. It counts as functional, cell-based.
Data set [11] is filed under the species Homo sapiens. In words: Selectivity ratio of IC50 for inhibition of C-terminal His-tagged human recombinant full length HDAC3 (1 to 428 residues)/N-terminal GST-tagged human recombinant NCOR2 (395 to 489 residues) expressed in baculovirus-infected Sf9 cells to IC50 for inhibition of C-terminal FLAG/His-tagged human recombinant HDAC1 (1 to 482 residues) expressed in baculovirus-infected Sf9 cells.

The species named for data set [12] is Homo sapiens. In words: Selectivity ratio of IC50 for inhibition of N-terminal GST-tagged human HDAC7 (518 to end residues) expressed in baculovirus-infected Sf9 cells to IC50 for inhibition of C-terminal FLAG/His-tagged human recombinant HDAC1 (1 to 482 residues) expressed in baculovirus-infected Sf9 cells.
The species named for data set [13] is Homo sapiens. The data set can be described thus: Selectivity ratio of IC50 for inhibition of C-terminal His-tagged human HDAC9 (604 to 1066 residues) expressed in baculovirus-infected Sf9 cells to IC50 for inhibition of C-terminal FLAG/His-tagged human recombinant HDAC1 (1 to 482 residues) expressed in baculovirus-infected Sf9 cells.
The species entered for data set [14] is Homo sapiens. In words: Selectivity ratio of IC50 for inhibition of N-terminal GST-tagged human recombinant full length HDAC5 expressed in baculovirus-infected Sf9 cells to IC50 for inhibition of C-terminal 6XHis-tagged human recombinant full length HDAC2 (1 to 488 residues) expressed in baculovirus-infected Sf9 cells.
For data set [15], the species on record is Homo sapiens. The data set can be described thus: Selectivity ratio of IC50 for inhibition of N-terminal GST-tagged human HDAC7 (518 to end residues) expressed in baculovirus-infected Sf9 cells to IC50 for inhibition of C-terminal 6XHis-tagged human recombinant full length HDAC2 (1 to 488 residues) expressed in baculovirus-infected Sf9 cells.
Data set [16] is filed under the species Homo sapiens. The data set can be described thus: Selectivity ratio of IC50 for inhibition of C-terminal His-tagged human HDAC9 (604 to 1066 residues) expressed in baculovirus-infected Sf9 cells to IC50 for inhibition of C-terminal 6XHis-tagged human recombinant full length HDAC2 (1 to 488 residues) expressed in baculovirus-infected Sf9 cells.

Histone deacetylase 3/Nuclear receptor corepressor 2 (HDAC3/NCoR2), sequence (O15379 whole entry, the tested form may be a part): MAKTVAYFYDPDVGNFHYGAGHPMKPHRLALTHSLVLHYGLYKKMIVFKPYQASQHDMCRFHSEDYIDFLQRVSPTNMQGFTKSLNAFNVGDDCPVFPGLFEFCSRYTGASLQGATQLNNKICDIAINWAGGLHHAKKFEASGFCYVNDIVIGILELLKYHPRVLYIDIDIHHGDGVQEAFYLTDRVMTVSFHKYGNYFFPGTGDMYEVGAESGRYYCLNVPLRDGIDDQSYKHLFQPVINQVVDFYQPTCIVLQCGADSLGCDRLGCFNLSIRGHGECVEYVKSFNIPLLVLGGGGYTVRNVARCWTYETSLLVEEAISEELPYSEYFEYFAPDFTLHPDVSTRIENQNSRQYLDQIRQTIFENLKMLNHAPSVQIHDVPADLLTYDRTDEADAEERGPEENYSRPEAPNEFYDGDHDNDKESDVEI
Histone deacetylase 3/Nuclear receptor corepressor 2 (HDAC3/NCoR2), sequence (Q9Y618 whole entry, further chain, the tested form may be a part): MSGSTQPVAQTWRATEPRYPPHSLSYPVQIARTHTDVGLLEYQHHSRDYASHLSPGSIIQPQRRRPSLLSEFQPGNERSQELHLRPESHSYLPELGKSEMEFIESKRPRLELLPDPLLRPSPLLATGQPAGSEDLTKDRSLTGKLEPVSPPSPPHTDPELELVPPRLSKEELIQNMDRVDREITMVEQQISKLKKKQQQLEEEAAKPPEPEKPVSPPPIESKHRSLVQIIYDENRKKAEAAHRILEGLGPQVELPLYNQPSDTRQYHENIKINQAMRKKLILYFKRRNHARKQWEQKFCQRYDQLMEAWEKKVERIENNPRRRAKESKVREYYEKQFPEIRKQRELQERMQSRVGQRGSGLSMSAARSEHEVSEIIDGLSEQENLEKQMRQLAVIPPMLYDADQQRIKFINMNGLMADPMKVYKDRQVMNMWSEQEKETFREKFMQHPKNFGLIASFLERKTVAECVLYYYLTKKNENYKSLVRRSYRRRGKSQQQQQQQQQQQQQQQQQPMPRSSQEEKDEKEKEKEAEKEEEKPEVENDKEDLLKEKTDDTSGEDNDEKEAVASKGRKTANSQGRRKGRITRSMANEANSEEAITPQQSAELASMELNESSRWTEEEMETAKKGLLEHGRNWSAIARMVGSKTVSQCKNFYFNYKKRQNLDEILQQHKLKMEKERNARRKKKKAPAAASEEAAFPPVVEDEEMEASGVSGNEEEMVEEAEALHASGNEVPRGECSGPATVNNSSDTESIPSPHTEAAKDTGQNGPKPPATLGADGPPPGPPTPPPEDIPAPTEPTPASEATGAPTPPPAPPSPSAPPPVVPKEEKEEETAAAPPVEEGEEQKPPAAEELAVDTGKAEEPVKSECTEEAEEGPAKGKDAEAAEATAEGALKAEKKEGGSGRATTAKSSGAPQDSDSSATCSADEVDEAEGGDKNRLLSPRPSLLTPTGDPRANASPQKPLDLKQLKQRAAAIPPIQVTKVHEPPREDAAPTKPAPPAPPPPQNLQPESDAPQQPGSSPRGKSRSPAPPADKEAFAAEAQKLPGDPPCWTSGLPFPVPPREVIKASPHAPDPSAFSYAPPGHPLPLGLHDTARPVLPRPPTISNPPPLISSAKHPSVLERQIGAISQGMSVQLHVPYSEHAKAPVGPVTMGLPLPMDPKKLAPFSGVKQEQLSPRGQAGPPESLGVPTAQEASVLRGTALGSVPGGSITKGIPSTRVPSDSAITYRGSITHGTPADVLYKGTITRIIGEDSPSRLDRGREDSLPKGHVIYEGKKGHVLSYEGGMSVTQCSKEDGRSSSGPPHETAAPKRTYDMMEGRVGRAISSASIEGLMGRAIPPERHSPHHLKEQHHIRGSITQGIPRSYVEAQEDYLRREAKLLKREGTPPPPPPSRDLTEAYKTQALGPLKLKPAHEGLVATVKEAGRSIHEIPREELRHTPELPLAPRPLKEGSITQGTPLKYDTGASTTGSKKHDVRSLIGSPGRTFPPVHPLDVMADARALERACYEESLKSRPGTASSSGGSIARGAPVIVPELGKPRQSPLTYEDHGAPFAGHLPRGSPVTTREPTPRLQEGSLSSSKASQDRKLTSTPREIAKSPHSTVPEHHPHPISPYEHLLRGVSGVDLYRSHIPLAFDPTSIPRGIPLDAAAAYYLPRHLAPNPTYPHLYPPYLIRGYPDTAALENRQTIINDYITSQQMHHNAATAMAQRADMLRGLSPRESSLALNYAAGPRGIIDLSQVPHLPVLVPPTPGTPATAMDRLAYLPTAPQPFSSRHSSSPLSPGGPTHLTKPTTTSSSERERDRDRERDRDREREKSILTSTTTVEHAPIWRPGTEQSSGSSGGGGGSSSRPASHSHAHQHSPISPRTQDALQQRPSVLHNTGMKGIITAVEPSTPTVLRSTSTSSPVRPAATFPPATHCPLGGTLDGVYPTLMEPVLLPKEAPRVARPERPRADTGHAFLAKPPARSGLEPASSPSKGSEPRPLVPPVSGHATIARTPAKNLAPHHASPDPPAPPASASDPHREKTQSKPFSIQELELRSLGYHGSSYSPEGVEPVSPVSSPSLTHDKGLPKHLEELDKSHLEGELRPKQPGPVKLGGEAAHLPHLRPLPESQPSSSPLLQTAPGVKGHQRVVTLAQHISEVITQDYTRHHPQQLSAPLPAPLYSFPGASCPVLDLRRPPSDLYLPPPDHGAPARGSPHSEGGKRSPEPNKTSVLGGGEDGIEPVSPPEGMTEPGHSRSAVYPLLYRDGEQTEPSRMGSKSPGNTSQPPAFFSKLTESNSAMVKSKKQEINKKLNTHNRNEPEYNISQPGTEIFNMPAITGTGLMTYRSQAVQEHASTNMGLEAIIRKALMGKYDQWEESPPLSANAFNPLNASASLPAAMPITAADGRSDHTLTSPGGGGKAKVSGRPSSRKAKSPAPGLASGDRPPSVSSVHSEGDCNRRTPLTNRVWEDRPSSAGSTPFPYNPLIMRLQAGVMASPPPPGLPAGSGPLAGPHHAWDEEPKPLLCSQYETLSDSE
Histone deacetylase 9, sequence (Q9UKV0 whole entry, the tested form may be a part): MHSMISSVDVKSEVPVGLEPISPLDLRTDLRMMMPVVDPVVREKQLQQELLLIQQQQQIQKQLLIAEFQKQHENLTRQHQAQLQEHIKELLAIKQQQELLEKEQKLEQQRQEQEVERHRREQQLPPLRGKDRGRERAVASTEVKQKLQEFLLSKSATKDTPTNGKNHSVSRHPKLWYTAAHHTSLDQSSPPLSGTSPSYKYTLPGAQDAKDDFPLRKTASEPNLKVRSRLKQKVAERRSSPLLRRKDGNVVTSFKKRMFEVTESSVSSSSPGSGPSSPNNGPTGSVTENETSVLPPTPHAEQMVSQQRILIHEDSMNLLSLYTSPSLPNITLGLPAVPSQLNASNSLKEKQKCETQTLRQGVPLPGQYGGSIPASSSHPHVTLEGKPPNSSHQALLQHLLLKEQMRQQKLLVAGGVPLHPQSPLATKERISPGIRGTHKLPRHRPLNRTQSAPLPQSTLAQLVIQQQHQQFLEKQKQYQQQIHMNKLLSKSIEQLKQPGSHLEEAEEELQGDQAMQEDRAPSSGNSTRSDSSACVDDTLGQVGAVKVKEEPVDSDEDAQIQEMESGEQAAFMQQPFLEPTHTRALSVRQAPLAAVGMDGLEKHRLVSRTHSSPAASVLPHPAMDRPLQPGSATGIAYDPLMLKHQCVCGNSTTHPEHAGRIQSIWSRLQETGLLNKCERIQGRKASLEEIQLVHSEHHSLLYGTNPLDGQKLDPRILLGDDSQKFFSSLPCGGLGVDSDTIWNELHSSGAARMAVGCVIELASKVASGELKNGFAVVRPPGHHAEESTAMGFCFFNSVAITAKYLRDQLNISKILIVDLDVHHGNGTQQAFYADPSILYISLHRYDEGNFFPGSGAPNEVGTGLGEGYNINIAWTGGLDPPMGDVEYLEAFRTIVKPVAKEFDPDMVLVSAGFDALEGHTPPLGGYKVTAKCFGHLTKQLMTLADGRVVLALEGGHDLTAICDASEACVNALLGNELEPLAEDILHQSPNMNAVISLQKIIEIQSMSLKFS
Histone deacetylase 4, sequence (P56524 whole entry, the tested form may be a part): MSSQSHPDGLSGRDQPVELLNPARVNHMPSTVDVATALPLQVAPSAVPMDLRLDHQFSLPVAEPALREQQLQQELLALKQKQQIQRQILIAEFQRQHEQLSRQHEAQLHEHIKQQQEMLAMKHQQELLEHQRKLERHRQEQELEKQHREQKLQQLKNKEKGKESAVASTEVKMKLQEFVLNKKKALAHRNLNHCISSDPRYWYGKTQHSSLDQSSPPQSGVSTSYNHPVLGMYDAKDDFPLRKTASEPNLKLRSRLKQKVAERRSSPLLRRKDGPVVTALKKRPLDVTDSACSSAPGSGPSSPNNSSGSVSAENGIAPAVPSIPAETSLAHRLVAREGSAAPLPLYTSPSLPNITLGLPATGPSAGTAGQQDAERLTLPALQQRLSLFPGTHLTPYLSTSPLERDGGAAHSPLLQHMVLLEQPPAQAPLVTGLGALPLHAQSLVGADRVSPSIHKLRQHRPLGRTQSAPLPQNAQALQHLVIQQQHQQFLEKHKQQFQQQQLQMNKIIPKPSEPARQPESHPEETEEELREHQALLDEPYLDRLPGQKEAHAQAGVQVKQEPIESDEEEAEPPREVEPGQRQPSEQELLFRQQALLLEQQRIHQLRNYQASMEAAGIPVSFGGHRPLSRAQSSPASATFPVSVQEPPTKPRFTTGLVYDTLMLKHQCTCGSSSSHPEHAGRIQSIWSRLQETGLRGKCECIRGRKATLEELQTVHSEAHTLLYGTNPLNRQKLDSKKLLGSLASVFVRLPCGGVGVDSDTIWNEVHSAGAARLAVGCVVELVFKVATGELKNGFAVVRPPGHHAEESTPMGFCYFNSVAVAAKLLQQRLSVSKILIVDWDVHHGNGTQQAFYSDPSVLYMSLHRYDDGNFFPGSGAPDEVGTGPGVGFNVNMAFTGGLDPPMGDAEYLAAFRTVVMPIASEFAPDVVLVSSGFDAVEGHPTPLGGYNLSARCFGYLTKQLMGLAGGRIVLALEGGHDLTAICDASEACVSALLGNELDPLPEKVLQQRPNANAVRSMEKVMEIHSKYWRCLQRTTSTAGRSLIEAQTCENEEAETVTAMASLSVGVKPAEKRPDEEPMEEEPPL

For `N=C(NO)c1ccc2nc(-c3cccc(-c4cn5ccccc5n4)c3)[nH]c2c1`, the solubility kinetic at 1.5 h, 200 µM in [1] was 36.1 µM (≈ 13.3 µg/mL). Besides, the half-life at 1 µM in [2] was 7.1 min. Besides, the pIC50 is 6.63 on Cytochrome P450 3A4; less than 5.00 at Cytochrome P450 2D6; 6.26 at Histone deacetylase 1; 6.40 against Histone deacetylase 2; less than 5.00 in [3]; less than 5.00 at Histone deacetylase 4. Further, the pIC50 on Histone deacetylase 9 was less than 5.00; in the data set on MCF7 [4], 5.70. Besides, the result in the data set on MCF7 [5], with MCF7 [6], in the data set with MCF7 [9] and with MCF7 [10] was Active. Besides, the inhibition entry (in the data set on MCF7 [7]; in data set [8]) was “Active” each time. In addition, the Ratio IC50 in the data set listed under Homo sapiens [11], in the data set filed under Homo sapiens [12], in the data set filed under Homo sapiens [13], in the data set filed under Homo sapiens [14], in the data set filed under Homo sapiens [15] and in the data set listed under Homo sapiens [16] was more than 44 throughout.
